# Measured values taken from US20240124455A1, “TRICYCLIC COMPOUNDS AS ANTICANCER AGENTS” (JINGRUI BIOPHARMA CO., LTD., priority 2021, published 2024).
# Columns and labels:
# [1] = system: MV-4-11; experiment: Cell proliferation assay (Cell Titer-Glo); format: cell-based; details: MV-4-11 cells, compound treatment 72 h, CellTiter-Glo
# Description: In order to evaluate the activity of the compound on cells, the Cell Titer-Glo assay was used for detection. The cells were incubated in a 37° C. incubator and treated with compounds for 72 hours. At the end of the reaction, the number of living cells in the culture is measured by quantitative determination of ATP. ATP is an indicator of the metabolism of living cells. With Cell Titer-Glo, the luminescence signal produced by cell lysis is proportional to the amount of ATP present, and the amount of ATP is directly proportional to the number of cells in the culture. These signal ratios reflect the cell activity of the compound at that concentration in the well under this condition. • (1) Seeding cells • Trypsinize cells and count cell density with the automated cell counter. • Dilute cell suspension to required density according to seeding density. • Seed 100 ul cells into 96-well plate in growth medium according to the plate map. Medium only is used as background control (Min). • Incubate at 37° C., 5% CO2 overnight. • (2) Compound treatment • Make 200× compound solution in DMSO. • Dilute compounds with growth medium to 3× final concentration by addition of 3 ul 200× compounds to 197 ul growth medium. • Add 50 ul diluted compounds to cells and incubate at 37° C., 5% CO2 for 72 h. • (3) Measurement • Equilibrate the assay plate to room temperature prior to measurement. • Add 40 ul of CellTiter-Glo® Reagent into each well. • Mix contents for 2 minutes on an orbital shaker to induce cell lysis. • Incubate at room temperature for 60 minutes to stabilize luminescent signal. • Record luminescence on Envision. • (4) Data analysis • (1) Using GraphPad Prism 5. • (2) % Inh=(Max signal−Compound signal)/(Max signal−Min signal)×100. • (3) Max signal was obtained from the action of DMSO. • (4) Min signal was obtained from the action of medium only.
# [2] = target: T1, BRD4 (BD1) (Homo sapiens, UniProt O60885); experiment: BRD4 (BD1) binding assay (HTRF); details: BRD4 (D1) with GST tag and biotin-labeled acetylated peptide
# T1 construct: purchased Reaction Biology Company RD-11-157
# Description: The BRD4 (BD1) biochemical binding assay was carried out by Sundia MediTech Co., Ltd. • Materials and suppliers: • BRD4(D1): Reaction Biology Company; catalog #: RD-11-157; batch #1319 • Positive control compound: AZD5153; Selleck, catalog #, S8344, batch #, 1 • Peptide: GL China; catalog #329934; batch #, P171229-JQ329934 • DMSO: Sigma; catalog #, D8418-1L; batch #, SHBG3288V • OptiPlate-384: PerkinElmer; catalog #6007270, batch #, 8240-17211 • Instruments: • Centrifuge (manufacturer: Eppendorf, model: 5430) • Microplate reader (manufacturer: Perkin Elmer, model: EnVision) • Sonic pipetting system (manufacturer: Labcyte, model: Echo® 550) • In the assay, the HTRF method uses an anti-GST antibody with a cryptate chelate-labeled europium element as the donor, and the d2 or XL665-labeled streptavidin (having high affinity with biotin) as the acceptor to study the interaction between BRD4 (D1) with GST tag and biotin-labeled acetylated peptide. When the donor and acceptor are close to each other due to the binding of BRD4 (D1) to the biotin-labeled peptide, the excitation of the donor triggers fluorescence resonance energy transfer (FRET) to the acceptor, which then emits fluorescence at a specific wavelength (665 nm). • General assay procedure: 20 nL of compound solution was transferred to the 384-well plate by Labcyte Echo® 550 liquid handler, and 5 μL of BRD4 (BD1) solution from Reaction Biology Company, RD-11-157, or the assay buffer was added to each well. After centrifuge for 1 minute and incubating 15 minutes at rt, the 5 μL peptide (GL China, Catalog #329934, Batch, P171229-JQ329934) was added to each well. After centrifuge for 1 minute at 1000 rpm, 10 μL detect solution was added to each well. After incubating for 60 minutes, centrifuging 1 minute, the signals were measured by Microplate reader. Data analysis: The inhibition percentage in the presence of the compound was calculated based on the following formula:
# % Inhibition=(Signal_max−Signal sample/Signal_max−Signal_min)×100
# Fitting the data in GrphaPad Prism V5.0 software with log(inhibitor) vs. response-Variable slope, the IC50 was obtained.
IC50 [1] [nM],IC50 [2] [nM],"IC50 ([1]; Homo sapiens, MV4-11, 72 h) [nM]",SMILES
72.2,4.8,–,"[2H]C([2H])([2H])n1nc2c3ncc(-c4c(C)nnn4C)cc3n(C(c3ncccc3F)C3CCOCC3)c2c1C(C)(C)O (single isomer, unassigned) [Example 15, 2-(6-(1,4-Dimethyl-1H-1,2,3-triazol-5-yl)-4-((3-fluoropyridin-2-yl)(tetrahydro-2H-pyran-4-yl)methyl)-2-(methyl-d3)-2,4-dihydropyrazolo[3′,4′:4,5]pyrrolo[3,2-b]pyridin-3-yl)propan-2-ol]"
–,0.18,0.75,Cc1nnn(C)c1-c1cnc2c3nn(C)c(C(C)(C)O)c3n([C@H](c3ccccn3)C3CCOCC3)c2c1 [Example 8]
–,0.61,1.98,Cc1nnn(C)c1-c1cnc2c3nn(C)c(C(C)(C)O)c3n(C(c3ccccn3)C3CCOCC3)c2c1 (racemic) [Example 6]
1.77,0.53,–,"[2H]C([2H])([2H])n1nc2c3ncc(-c4c(C)nnn4C)cc3n(C(c3ncccc3F)C3CCOCC3)c2c1C(C)(C)O (racemic) [Example 14, 2-(6-(1,4-Dimethyl-1H-1,2,3-triazol-5-yl)-4-((3-fluoropyridin-2-yl)(tetrahydro-2H-pyran-4-yl)methyl)-2-(methyl-d3)-2,4-dihydropyrazolo[3′,4′:4,5]pyrrolo[3,2-b]pyridin-3-yl)propan-2-ol]"
85.3,5,–,"[2H]C([2H])([2H])c1nnn(C)c1-c1cnc2c3nn(C)c(C(C)(C)O)c3n(C(c3ncccc3F)C3CCOCC3)c2c1 (single isomer, unassigned) [Example 19, 2-(4-((3-Fluoropyridin-2-yl)(tetrahydro-2H-pyran-4-yl)methyl)-2-methyl-6-(1-methyl-4-(methyl-d3)-1H-1,2,3-triazol-5-yl)-2,4-dihydropyrazolo[3′,4′:4,5]pyrrolo[3,2-b]pyridin-3-yl)propan-2-ol]"
